Experimental data taken from patent US20250177370A1, “METHOD FOR ALLEVIATING UTERINE LEIOMYOMA USING NICOTINAMIDE” (TAIPEI MEDICAL UNIVERSITY, priority 2023, published 2025).

Legend:
[1] = system: Eker rat uterine leiomyoma cell line ELT-3; assay: Crystal violet staining assay (area density, viable cells); format: cell-based; settings: ELT-3 cells, 48 hours, vs control group, p<0.001
Protocol: (§1) Eker rat uterine leiomyoma cell line ELT-3 was purchased from the American Type Culture Collection (ATCC, Manassas, Va., USA). The ELT-3 cells were grown in a 6 cm Petri dish containing Dulbecco's Modified Eagle's Medium (DMEM)/F12 [1:1 (v/v)] (Cassion, Cat. no. DFP29) supplemented with 10% fetal bovine serum (FBS, Corning Inc., Cat. no. 35-010-CV) and 1% antibiotic-antimycotic (Corning Inc., Cat. no. 30-004-CI). The ELT-3 cells were cultivated in an incubator at 37° C. with 5% CO2. Medium change was performed every two to three days. Cell passage was performed when the cultured cells reached 80% to 90% of confluence.
First, the ELT-3 cells prepared in section 1 of “General Experimental Materials” were divided into 3 groups, including a control group, and two experimental groups (i.e., experimental groups 1 and 2). Each group of the ELT-3 cells was seeded at a concentration of 1×10^5 cells/well into a respective well of 6-well culture plates containing 2 mL of DMEM/F12 supplemented with 10% FBS and 1% penicillin-streptomycin, followed by cultivation in an incubator (37° C., 5% CO2) for 24 hours.
(§2) Next, medium change was performed by adding a fresh culture medium supplemented with 1% FBS into the 6-well culture plate. […]
(§3) The data thus obtained were analyzed according to the procedures as described in section 1 of “General Procedures”.

primary melanocytes = primary melanocytes with ultraviolet (UV) radiation-induced DNA damage; Thompson B. C. et al. (2014); cited from earlier work
[2] = system: collagen type I alpha 1 chain (COL1A1); assay: Western blotting of COL1A1 in ELT-3 cells; format: cell-based, rat; settings: 72 hours, normalized to GAPDH, vs control group
Protocol: (§4) First, the ELT-3 cells prepared in section 1 of “General Experimental Materials” were divided into 3 groups, including a control group, and two experimental groups (i.e., experimental groups 1 and 2). Each group of the ELT-3 cells was seeded at a concentration of 2×10^5 cells/well into a 10-cm Petri dish containing 2 mL of DMEM/F12 supplemented with 10% FBS and 1% penicillin-streptomycin, followed by cultivation in an incubator (37° C., 5% CO2) overnight.
(§5) Next, medium change was performed by adding a fresh culture medium supplemented with 1% FBS into the 10-cm Petri dish, followed by cultivation in an incubator (37° C., 5% CO2) for 24 hours. […]
(§6) After cultivation in an incubator (37° C., 5% CO2) for 72 hours, each of the cell cultures was mixed with 100 μL of a RIPA lysis buffer (BIOMAN, Cat. no. 20121701) containing protease inhibitor cocktail (Roche, Cat. no. 4693159001). […] The protein concentration in the total protein sample was determined using bicinchoninic acid (BCA) assay kit (T-Pro Biotechnology, Cat. no. JB04-D001) in accordance with the manufacturer's instructions. […]
(§7) Subsequently, ImageJ software was used for semi-quantitatively calculating the corresponding protein expression level. […]
(§8) The relative expression level was calculated using the following Equation (1): […]
as §3

[3] = system: Eker rat uterine leiomyoma cell line ELT-3; assay: Colony formation assay; format: cell-based; settings: ELT-3 cells, 3 days treatment then 7 to 10 days, vs control group, p<0.05
Protocol: as §1
First, the ELT-3 cells prepared in section 1 of “General Experimental Materials” were divided into 3 groups, including a control group, and two experimental groups (i.e., experimental groups 1 and 2). Each group of the ELT-3 cells was seeded at a concentration of 5×10^2 cells/well into a respective well of 6-well culture plates containing 2 mL of DMEM/F12 supplemented with 10% FBS and 1% penicillin-streptomycin, followed by cultivation in an incubator (37° C., 5% CO2) for 24 hours.
as §2, §3

fibronectin = assay: Western blotting of ECM protein fibronectin in ELT-3 cells; format: cell-based, rat; settings: 72 hours, normalized to GAPDH, vs control group
Protocol: as §4, §5, §6, §7, §8, §3

[4] = system: alpha-smooth muscle actin (α-SMA); assay: Western blotting of α-SMA in ELT-3 cells; format: cell-based, rat; settings: 72 hours, normalized to GAPDH, vs control group
Protocol: as §4, §5, §6, §7, §8, §3

[5] = 20 mM nicotinamide (experimental group 1)
[6] = 50 mM nicotinamide (experimental group 2)

## NC(=O)c1cccnc1 [nicotinamide]
[1]; [5]
  area density: significant decrease
[1]; [6]
  area density: significant decrease
Primary melanocytes
  DNA repair: enhances DNA repair
[2]; 20 mM nicotinamide
  relative expression level of COL1A1: significantly decreased
[2]; 50 mM nicotinamide
  relative expression level of COL1A1: significantly decreased
[3]; [5]
  colony density: significant decrease
[3]; [6]
  colony density: significant decrease
fibronectin; 20 mM nicotinamide
  relative expression level of fibronectin: significantly decreased
fibronectin; 50 mM nicotinamide
  relative expression level of fibronectin: significantly decreased
[4]; 20 mM nicotinamide
  relative expression level of α-SMA: significantly decreased
[4]; 50 mM nicotinamide
  relative expression level of α-SMA: significantly decreased
